Experimental data: patent publication US5420289A, “Substituted indole-, indene-, pyranoindole- and tetrahydrocarbazole-alkanoic acid derivatives as inhibitors of PLA2 and lipoxygenase” (American Home Products Corporation, priority 1993, dated 1995)
Structures can show the parent of a compound that is named as a salt. Where two headings read alike, the source gives them in different places.

How the values were obtained:
[1] = target: T1, human synovial fluid PLA2 (Homo sapiens, UniProt P14555); assay: in vitro isolated phospholipase A2 assay, human synovial fluid PLA2 (Example 74); assay type: biochemical; set-up: inhibition / % Inhibition, HSF (human synovial fluid): dose or concentration left out as unconfirmed; details: for inhibition: read-out: % Inhibition, HSF (human synovial fluid); for IC50: Table III, read-out: IC50 HSF (human synovial fluid)
T1 sequence (P14555 21-144): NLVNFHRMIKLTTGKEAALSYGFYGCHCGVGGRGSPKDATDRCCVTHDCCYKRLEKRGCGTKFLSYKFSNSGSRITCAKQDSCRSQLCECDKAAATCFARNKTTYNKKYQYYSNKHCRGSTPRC
Procedure: (§1) The compounds of the invention are tested in an in vitro isolated phospholipase A2 assay to determine the ability of the test compounds to inhibit the release of arachidonic acid from an arachidonic acid-containing substrate by the action of phospholipase A2 enzyme from human and non-human sources.
(§2) This assay is carried out as follows:
(§3) Into a 15 mL polypropylene tube are added the following:
(§4) ^6 Two human PLA2 enzymes are used:
b) Purified human synovial fluid.
(§5) Incubate the 100mL reaction mixture for 10 minutes at 37° C. in a shaking water bath. The reaction is terminated by the addition of 2 mL tetrahydrofuran, followed by vortexlag. NH2 columns (100 mg/mL--Analytichem International) are conditioned with 0.5 mL tetrahydrofuran followed by 0.5 mL tetrahydrofuran/water (2 mL:0.1 mL, v/v).
(§6) The sample is loaded onto the columns and slowly drawn through them. The hydrolyzed arachidonic acid retained in the columns is eluted therefrom with 1 mL tetrahydrofuran/glacial acetic acid (2%). The arachidonic acid is transferred to scintillation vials and quantitated by b-counting analysis. A "total counts" sample is prepared by pipetting […] ^3 H-arachidonate E. coli directly into a scintillation vial to which is added 1 mL tetrahydrofuran. 10 mL aquasol (scintillation cocktail) is added to all samples. [formula]

human platelet PLA2 = target: T2, human platelet PLA2 (Homo sapiens, UniProt P14555); assay: in vitro isolated phospholipase A2 assay, human platelet PLA2 (Example 74); assay type: biochemical; set-up: dose or concentration left out as unconfirmed; details: read-out: % Inhibition, HP (human platelet)
T2 construct: Semi-purified human platelet acid extract PLA2; from tissue; host or cells: human platelets (semi-purified acid extract)
T2 sequence (P14555 21-144): T1 sequence (P14555 21-144)
Procedure: as §1, §2, §3, §4
a) Semi-purified human platelet acid extract PLA2 (in 10 mM
sodium acetate buffer, pH 4.5). Remove protein precipitate by
centrifugation at about 2200 rpm for 10 minutes.
as §5, §6

[2] = system: cyclooxygenase (PGE2 synthesis) in rat polymorphonuclear leukocytes (PMN); assay: inhibition of PGE2 synthesis (cyclooxygenase) by rat glycogen-elicited PMN (Example 73); assay type: cell-based, rat (female Wistar); details: Leukocyte; for inhibition at 10000 µM: at 10 mM
Procedure: (§7) Rat polymorphonuclear leukocytes (PMNs) are obtained from female Wistar rats (150-200 g) which receive an injection of 6% glycogen (10 ml i.p.). Rats are sacrificed 18-24 hours post injection by CO2 asphyxiation and the elicited cells are harvested by peritoneal lavage using physiological saline (0.9% NaC1). The exudate is centrifuged at 400 ×g for 10 minutes. The supernatant fluid is discarded and the cell pellet is resuspended to a concentration of 2.0×10^7 cells/mL in HBSS containing Ca^++ and Mg^++ and 10 mM L-cysteine.
(§8) To 1 mL aliquots of cell suspension, test drugs or vehicle are added, then preincubated at 37° C. for 10 minutes. A23187 (1 mM), [^3 H]-AA (3.0 mCi/mL) and unlabeled AA (1 mM) are then added and the samples are further incubated for 10 minutes. The reaction is terminated by centrifugation and pelleting cells. Supernatants are then analyzed by HPLC analysis on a 15 cm×4.6 mm ID supelcosil LC-18 (Supelco)(3M) column, using a two solvent system at a flow rate of 1.4 mL total flow as follows:
In this assay, the procedure of Example 72 is carried out as described. However, in order to determine cyclooxygenase activity, the samples are cochromatographed with authentic reference [^3 H]-PGE2.
The results be calculated as in Example 72 and presented below: […]

[3] = system: synthesis of LTB4 by rat glycogen-elicited polymorphonuclear leukocytes (PMN); assay: inhibition of LTB4 synthesis by rat glycogen-elicited PMN (Example 72); assay type: cell-based, rat (female Wistar); details: Leukocyte; for inhibition at 10000 µM: at 10 mM, negative number denotes potentiation; for inhibition at 500 µM: at 0.5 mM
Source text: This is especially true with respect to 5,12-diHETE, which is also denoted as LTB4 lsee Ford-Hitchinson, J. Roy. Soc. Med., 74, 831 (1981)]. Compounds which inhibit the PLA2 -mediated release of arachidonic acid thereby effectively prevent the oxidation of arachidonic acid to the various leukotriene products via the lipoxygenase cascade. Accordingly, the specificity of action of PLA2 inhibitors can be determined by the activity of test compounds in this assay, which measures the ability of compounds to inhibit the synthesis of LTB4 by rat glycogen-elicited polymorphonuclear leukocytes (PMN) in the presence of exogenous substrate.
The assay is carded out as follows:
as §7, §8
Gradient: (system is equilibrated with Solvent A)
Percent solvent changes are accomplished in a linear fashion.
Injections: […] of each supernatant is injected directly onto column and ^3 H arachidonic acid metabolites are monitored using an on-line radioactivity detector (Ramona, IN/U S, Fairfield, NJ).
Standards: 10^4 -2.0×10^4 dpm of eicosanoids of interest are injected in […] EtOH cocktail.
Co-chromatography with standard [^3 H] leukotriene B4 (LTB4) in medium of stimulated PMN exposed to drug is compared to that found in medium of stimulated cells exposed to no drug, generating percent inhibition.
Results are expressed as percent inhibition at a given compound dose or as an IC50 value.

[4] = system: 5-lipoxygenase in human whole blood; assay: inhibition of 5-lipoxygenase in human whole blood (Example 79); assay type: cell-based; details: 25 μM
Procedure: The assay of this Example measures the ability of the compounds tested to inhibit 5-lipoxygenase in human whole blood.
as §2
Blood is obtained in 50-100 ml quantities from male donors. White blood cell counts and differentials are made. Two ml of blood are placed in a 15 ml polypropylene test tube. Compounds are solubilized in dimethylsulfoxide and diluted 1:10 in 10% bovine serum albumin in phosphate buffered saline, pH 7.4 resulting in a final dimethylsulfoxide concentration of 0.1% in the blood. Then, compounds are added to the blood in a shaking water bath at 37° C. for 10 minutes prior to the addition of […] calcium ionophore (A23187; Sigma). After ionophore administration, whole blood samples are mixed and incubated for 20 minutes at 37° C. in a shaking water bath. Incubation is terminated by placing samples in an ice bath and immediately adding ethylene glycol-bis-(b-aminoethyl ether)-N,N,N',N'-tetraacetic acid (10 mM). Samples are mixed and centrifuged at 1200 × g for 15 minutes at 4° C. Preparation of samples for evaluation by RIA or ELISA is carried out by the following protocol. Plasma is removed from sample tubes, placed in 15 ml polypropylene test tubes containing 8 ml methanol, and then vortexed to precipitate protein. Samples are stored at -70° C. overnight. The next day, samples are centrifuged at 200 × g for 15 minutes at 4° C. to pellet the precipitate. Samples are dried in a Savant speed vac concentrator, reconstituted to original volume with ice cold RIA or ELISA buffer, and stored at -70° C. until assayed. The assay for eicosanoids (LTB4, T×B2, and PGE2) is performed as described by the manufacturer of the [^3 H]-RIA kit or ELISA kit (LTB4 -Amersham, TxB2 and PGE2 - Caymen Chemical).
The total eicosanoid level in 2 ml of blood is calculated and reported as ng/10^6 neutrophils. […] Drug effects are expressed as percent change from control values.
Compounds tested in vitro are solubilized in dimethylsulfoxide and diluted 1:10 in 10% bovine serum albumin in phosphate buffer saline resulting in a final dimethylsulfoxide concentration of 0.1% i n the blood.

[5] = * (negative) denotes a potentiation, read-out: % Inhibition (PGE2 synthesis)
[6] = read-out: % Inhibition (PGE2 synthesis), symbol only

| Compound | inhibition [1] [%] | IC50 [1] [µM] | inhibition at 10000 µM [2, 5] [%] | inhibition at 10000 µM [3] [%] | further results |
| --- | --- | --- | --- | --- | --- |
| Cc1c(CC(=O)O)c2cc(OCc3ccc4ccccc4n3)ccc2n1Cc1ccc(F)cc1 [Example 24, 1-[(4-Fluorophenyl)methyl]-2-methyl-5-(2-quinolinylmethoxy)-1H-indole-3-acetic acid hemihydrate] | 56 |  | -126 | 97 |  |
| CCc1cc(OCc2ccc3ccccc3n2)cc2c3c([nH]c12)C(CC)(CC(=O)O)OCC3 (stereo not drawn) [Example 8, 1,8-Diethyl-1,3,4,9-tetrahydro-6-(2-quinolinylmethoxy)pyrano[3.4-b]indole-1-acetic acid] |  |  | 47 | 91 |  |
| CC(C(=O)O)c1ccc2c3cc(OCc4ccc5ccccc5n4)ccc3n(Cc3ccc4ccccc4n3)c2c1 (stereo not drawn) [Example 21, a-Methyl-6-(2-quinolinylmethoxy)-9-(2-quinolinylmethyl)-9H-carbazole-2-acetic acid] |  |  | -94 | 92 |  |
| COC(=O)Cc1c(C)n(C(=O)c2ccc(Cl)cc2)c2ccc(OCc3ccc4ccccc4n3)cc12 [Example 17A, 1-(4-Chlorobenzoyl)-2-methyl-5-(2-quinolinylmethoxy)-1H-indole-3-acetic acid methyl esterone tenth hydrate] |  |  | 50 | 96 |  |
| COC(=O)Cc1c(C)n(Cc2ccc(Cl)cc2)c2ccc(OCc3ccc4ccccc4n3)cc12 [Example 16C, 1-[(4-Chlorophenyl)methyl]-2-methyl-5-(2-quinolinylmethoxy)-1H-indole-3-acetic acid methyl ester] |  |  |  |  | inhibition at 10000 µM [2, 6]: < 0%; inhibition at 500 µM [3]: 88% |
| Cc1c(CC(=O)O)c2cc(OCc3ccc4ccccc4n3)ccc2n1Cc1ccc(Br)cc1 [Example 25, 1-[(4-Bromophenyl)methyl]-2-methyl-5-(2-quinolinylmethoxy)-1H-indole-3-acetic acid hemihydrate] | 11 |  | -67 | 93 |  |
| CC(C(=O)O)c1ccc2c(c1)[nH]c1ccc(Cl)cc12 (stereo not drawn) [carprofen, reference compound] |  |  | 83 | -10 |  |
| CC1=C(CC(=O)O)c2cc(F)ccc2/C1=C\c1ccc([S+](C)[O-])cc1 (stereo not drawn) [sulindac, reference compound] |  |  | 23 | -10 |  |

Now from value to compound, other results behind:

| inhibition [1] [%] | IC50 [1] [µM] | Compound | inhibition at 10000 µM [2, 5] [%] | inhibition at 10000 µM [3] [%] | further results |
| --- | --- | --- | --- | --- | --- |
| 4 |  | CCOC(=O)Cc1c(C)n(Cc2csc(-c3ccc(Cl)cc3)n2)c2ccc(OCc3csc(-c4ccccc4)n3)cc12 [Example 64, 5-[(2-Phenyl-4-thiazolyl)methoxy]-1-[[2-(4-chlorophenyl)-4-thiazolyl]methyl]-2-methyl-1H-indole-3-acetic acid ethyl ester] |  |  | inhibition (human platelet PLA2): 1% |
| 23 |  | Cc1c(CC(N)=O)c2cc(OCc3nc4ccccc4s3)ccc2n1Cc1ccc(Cl)cc1 [Example 45, 5-(2-Benzothiazolylmethoxy)-1-[(4-chlorophenyl)methyl]-2-methyl-1H-indole-3-acetamide] |  |  | inhibition (human platelet PLA2): 33% |
| 92 | 2.6 | Cc1c(CC(=O)O)c2cc(OCc3ccc4ccccc4n3)ccc2n1Cc1ccccc1 [Example 26, 1-[(Phenyl)methyl-2-methyl]-5-(2-quinolinylmethoxy)-1H-indole-3-acetic acid tenth hydrate] | -125 | 85 |  |
| 30 |  | Cc1c(CC(=O)O)c2cc(OCc3csc(-c4ccccc4)n3)ccc2n1Cc1ccc(C(C)(C)C)cc1 [Example 62, 5-[(2-Phenyl-4-thiazolyl)methoxy]-1-[[4-(1,1-dimethylethyl)phenyl]methyl]-2-methyl-1H-indole-3-acetic acid hemihydrate] |  |  | inhibition (human platelet PLA2): 3% |
| 46 | 4.1 | Cc1c(CC(=O)O)c2cc(OCc3ccc4ccccc4n3)ccc2n1Cc1ccc(Cl)cc1 [Example 16, 1-[(4-Chlorophenyl)methyl]-2-methyl-5-(2-quinolinylmethoxy)-1H-indole-3-acetic acid hydrochloride quarter hydrate] |  | 96 | inhibition at 10000 µM [2, 6]: < 0%; % Inhibition of LTB4 [4]: 18% |
| 53 | 15.5 | CCCCCn1c(C)c(CC(=O)O)c2cc(OCc3ccc4ccccc4n3)ccc21 [Example 29, 2-Methyl-1-pentyl-5-(2-quinolinylmethoxy)-1H-indole-3-acetic acid hemihydrate] | -123 | 88 |  |
| 58 | 14.9 | Cc1c(CC(=O)O)c2cc(OCc3ccc4ccccc4n3)ccc2n1C(=O)c1ccc(Cl)cc1 [Example 17, 1-(4-Chlorobenzoyl)-2-methyl-5-(2-quinolinylmethoxy)-1H-indole-3-acetic acid three quarters hydrate] |  |  | inhibition at 500 µM ([2]; at 0.5 mM, * (negative) denotes a potentiation): 60%; inhibition at 500 µM [3]: 46% |
| 46 | 16.4 | CCCCCCn1c(C)c(CC(=O)O)c2cc(OCc3ccc4ccccc4n3)ccc21 [Example 30, 1-Hexyl-2-methyl-5-(2-quinolinylmethoxy)-1H-indole-3-acetic acid three quarters hydrate] | -130 | 90 |  |
